{"source": "patent US20250296971A1", "about": "“GASTRIC INHIBITORY PEPTIDE RECEPTOR LIGANDS” (priority 2021, published 2025)", "biological_target": "T1, GIPR (CHO-K1-hGIPR cells) (Homo sapiens, UniProt P48546)", "T1 construct": "host or cells: CHO-K1", "T1 sequence (P48546 22-466)": "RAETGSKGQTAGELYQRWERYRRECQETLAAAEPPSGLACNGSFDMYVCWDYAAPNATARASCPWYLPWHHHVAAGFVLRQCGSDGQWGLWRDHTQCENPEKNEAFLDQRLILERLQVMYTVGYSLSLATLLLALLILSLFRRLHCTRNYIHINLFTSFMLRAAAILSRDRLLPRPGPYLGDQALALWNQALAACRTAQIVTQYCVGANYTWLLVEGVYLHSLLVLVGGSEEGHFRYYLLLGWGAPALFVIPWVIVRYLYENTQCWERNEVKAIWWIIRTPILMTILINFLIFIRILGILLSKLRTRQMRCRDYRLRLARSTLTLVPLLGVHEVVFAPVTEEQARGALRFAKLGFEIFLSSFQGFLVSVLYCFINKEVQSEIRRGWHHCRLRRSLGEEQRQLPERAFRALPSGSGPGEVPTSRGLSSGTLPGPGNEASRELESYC", "test": "FACS binding assay", "settings": "competition with 20 nM GIP-057, 4° C., 1 hour, read-out: pIC50 Category (converted)", "procedure,_shortened": "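Steps: detach CHO-K1-hGIPR cells (Accutase); wash in PBS/1% FCS; adjust to 500.000 cells per mL; wash ice-cold; incubate APC-streptavidin 1 μg/mL, 30 min on ice; wash twice; acquire on flow cytometer; fit MFI-concentration data with a four-parameter logistic model.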", "note": "*1 amine or outer side, *2 acyl side, *3 side chain or, on linkers, in order; H or OH if unused. Where a SMILES comes first, the peptide text is derived from it. Bridges are numbered along the chain shown (N, C = ends). [ ]: non-standard residue; d: D form. The star is where a group is joined. X14 = NC(=O)[C@H](CCCCNC(=O)CN1CCN2CCN3CCN(CC1)CC(=O)[O][In]([O]C(=O)C2)[O]C(=O)C3)NC(=O)CCC(=O)NCCCOCCOCCOCCCN*; X5 = NC(=O)[C@H](CCCCNC(=O)CN1CCN(CC(=O)O)CCN(CC(=O)O)CCN(CC(=O)O)CC1)NC(=O)CCC(=O)NCCCOCCOCCOCCCN*; Trp(5-Br) = N[C@@H](Cc1c[nH]c2ccc(Br)cc12)C(=O)O; Trp(5-Cl) = N[C@@H](Cc1c[nH]c2ccc(Cl)cc12)C(=O)O; Pyridine(2,6-diCH2) = c1cc(C[*:1])nc(C[*:2])c1; mXylylene = c1cc(C[*:1])cc(C[*:2])c1; Hyp = O=C(O)[C@@H]1C[C@@H](O)CN1; NMeE = CN[C@@H](CCC(=O)O)C(=O)O; Nphe = O=C(O)CNCc1ccccc1; Thp = NC1(C(=O)O)CCOCC1; Aib = CC(C)(N)C(=O)O", "data": [{"smiles": "CC[C@H](C)[C@@H]1NC(=O)[C@H](CC(C)C)NC(=O)C(C)(C)NC(=O)[C@@H](NC(=O)[C@@H](CC(C)C)NC(=O)[C@H](CCC(=O)O)NC(=O)[C@@H]2CCCN2C(=O)[C@H](Cc2c[nH]c3ccc(Br)cc23)NC(=O)[C@H](Cc2c[nH]c3ccccc23)NC(=O)[C@H](CC(=O)O)NC(C)=O)CSCc2cccc(c2)CSC[C@@H](C(=O)NCCCOCCOCCOCCCNC(=O)CCC(=O)N[C@@H](CCCCNC(=O)CN2CCN(CC(=O)O)CCN(CC(=O)O)CCN(CC(=O)O)CC2)C(N)=O)NC1=O", "note": "[GIP-082, Ac-Asp-Trp-5Brw-Pro-Glu-leu-[Cys(3MeBn)-Aib-Leu-Ile-Cys]-Ttds-Lys(DOTA)-NH2] (Ac-DW[Trp(5-Br)]PE[dL]C[Aib]LIC-X5; linker 7-11 via mXylylene)", "values": [{"measurement": "IC50", "value": "< 10", "unit": "nM"}]}, {"smiles": "CC[C@H](C)[C@@H]1NC(=O)[C@H](CC(C)C)NC(=O)C(C)(C)NC(=O)[C@@H](NC(=O)[C@H](CC(C)C)NC(=O)[C@H](CCC(=O)O)NC(=O)[C@@H]2CCCN2C(=O)[C@H](Cc2c[nH]c3ccccc23)NC(=O)[C@H](Cc2c[nH]c3ccccc23)NC(=O)[C@H](CC(=O)O)NC(C)=O)CSCc2cccc(c2)CSC[C@@H](C(=O)NCCCOCCOCCOCCCNC(=O)CCC(=O)N[C@@H](CCCCNC(=O)CN2CCN(CC(=O)O)CCN(CC(=O)O)CCN(CC(=O)O)CC2)C(N)=O)NC1=O", "note": "[GIP-131, Ac-Asp-Trp-Trp-Pro-Glu-Leu-[Cys(3MeBn)-Aib-Leu-Ile-Cys]-Ttds-Lys(DOTA)-NH2] (Ac-DWWPELC[Aib]LIC-X5; linker 7-11 via mXylylene)", "values": [{"measurement": "IC50", "value": "10 to 79.4", "unit": "nM"}]}, {"smiles": "CC[C@H](C)[C@@H]1NC(=O)[C@H](CC(C)C)NC(=O)[C@H](CCCCN)NC(=O)[C@@H](NC(=O)[C@H](CC(C)C)NC(=O)[C@H](CCC(=O)O)NC(=O)[C@@H]2CCCN2C(=O)[C@H](Cc2c[nH]c3ccccc23)NC(=O)[C@H](Cc2c[nH]c3ccccc23)NC(=O)[C@H](CC(=O)O)NC(=O)[C@H](Cc2ccc(O)cc2)NC(=O)[C@@H](N)CCSC)CSCc2cccc(c2)CSC[C@@H](C(N)=O)NC1=O", "note": "[GIP-243] (H-MYDWWPELCKLIC-NH2; linker 9-13 via mXylylene)", "values": [{"measurement": "IC50", "value": "10 to 79.4", "unit": "nM"}]}, {"smiles": "CC[C@H](C)[C@@H]1NC(=O)[C@H](CC(C)C)NC(=O)C(C)(C)NC(=O)[C@@H](NC(=O)[C@@H](CC(C)C)NC(=O)[C@H](CCC(=O)O)NC(=O)[C@@H]2CCCN2C(=O)[C@H](Cc2c[nH]c3ccc(Cl)cc23)NC(=O)[C@H](Cc2c[nH]c3ccccc23)NC(=O)[C@H](CC(=O)O)NC(C)=O)CSCc2cccc(c2)CSC[C@@H](C(=O)NCCCOCCOCCOCCCNC(=O)CCC(=O)N[C@@H](CCCCNC(=O)CN2CCN3CCN4CCN(CC2)CC(=O)[O][In]([O]C(=O)C3)[O]C(=O)C4)C(N)=O)NC1=O", "note": "[GIP-164, Ac-Asp-Trp-5Clw-Pro-Glu-leu-[Cys(3MeBn)-Aib-Leu-Ile-Cys]-Ttds-Lys(InDOTA)-NH2] (Ac-DW[Trp(5-Cl)]PE[dL]C[Aib]LIC-X14; linker 7-11 via mXylylene)", "values": [{"measurement": "IC50", "value": "< 10", "unit": "nM"}]}, {"smiles": "CC[C@H](C)[C@@H]1NC(=O)[C@H](CC(C)C)NC(=O)C2(CCOCC2)NC(=O)[C@@H](NC(=O)[C@@H](CC(C)C)NC(=O)[C@H](CCC(=O)O)NC(=O)CN(Cc2ccccc2)C(=O)[C@H](Cc2c[nH]c3ccc(Cl)cc23)NC(=O)[C@H](Cc2c[nH]c3ccccc23)NC(=O)[C@H](CC(=O)O)NC(C)=O)CSCc2cccc(n2)CSC[C@@H](C(N)=O)NC1=O", "note": "[GIP-185, Ac-Asp-Trp-5Clw-Nphe-Glu-leu-[Cys(2Lut)-Thp-Leu-Ile-Cys]-NH2] (Ac-DW[Trp(5-Cl)][Nphe]E[dL]C[Thp]LIC-NH2; linker 7-11 via Pyridine(2,6-diCH2))", "values": [{"measurement": "IC50", "value": "< 10", "unit": "nM"}]}, {"smiles": "CC[C@H](C)[C@@H]1NC(=O)[C@H](CC(C)C)NC(=O)C2(CCOCC2)NC(=O)[C@@H](NC(=O)[C@H](CC(C)C)NC(=O)[C@H](CCC(=O)O)N(C)C(=O)[C@@H]2C[C@@H](O)CN2C(=O)[C@H](Cc2c[nH]c3ccc(Cl)cc23)NC(=O)[C@H](Cc2c[nH]c3ccccc23)NC(=O)[C@H](CC(=O)O)NC(C)=O)CSCc2cccc(n2)CSC[C@@H](C(N)=O)NC1=O", "note": "[GIP-217, Ac-Asp-Trp-5Clw-Hyp-Nme-Leu-[Cys(2Lut)-Thp-Leu-Ile-Cys]-NH2] (Ac-DW[Trp(5-Cl)][Hyp][NMeE]LC[Thp]LIC-NH2; linker 7-11 via Pyridine(2,6-diCH2))", "values": [{"measurement": "IC50", "value": "< 10", "unit": "nM"}]}]}
